Activity calls are given as the source filed them. The rule behind the calls is not given here.
Assays:
[1] = Antioxidant activity against AAPH-induced lipid peroxidation assessed as inhibition of conjugated diene hydroperoxide production at 100 uM; type: functional
HepG2 [2] = assay: Hepatotoxicity against human HepG2 cells assessed as cell viability after 24 hrs by MTT assay; type: toxicity, cell-based; conditions: hepg2, 24 h
in vitro [3] = conditions: human, HepG2 cells
Description: Hepatotoxicity against human HepG2 cells assessed as cell viability at 300 uM after 24 hrs by MTT assay relative to control

in vitro [4] = conditions: human, HepG2 cells; remark: listed apart in the source
Description: Hepatotoxicity against human HepG2 cells assessed as cell viability at 100 uM after 24 hrs by MTT assay relative to control

in vitro [5] = conditions: human, HepG2 cells; remark: listed apart in the source
Description: Hepatotoxicity against human HepG2 cells assessed as cell viability at 1 uM after 24 hrs by MTT assay relative to control

in vitro [6] = conditions: human, HepG2 cells; remark: listed apart in the source
Description: Hepatotoxicity against human HepG2 cells assessed as cell viability at 10 uM after 24 hrs by MTT assay relative to control

in vitro [7] = conditions: human, HepG2 cells; remark: listed apart in the source
Description: Hepatotoxicity against human HepG2 cells assessed as cell viability at 3 uM after 24 hrs by MTT assay relative to control

in vitro [8] = conditions: human, HepG2 cells; remark: listed apart in the source
Description: Hepatotoxicity against human HepG2 cells assessed as cell viability at 30 uM after 24 hrs by MTT assay relative to control

Acetylcholinesterase [9] = biological target: T1, Acetylcholinesterase (Electrophorus electricus, UniProt O42275)
Description: Inhibition of electric eel AchE using acetylcholine as substrate preincubated for 15 mins followed by substrate addition measured for 5 mins by Ellman method

[10] = Neuroprotective activity in Wistar rat embryo primary cortical neuron using DEVD-AMC as flurogenic substrate assessed as inhibition of oligomycin A-induced cell death by measuring caspase 3 activity at 25 to 50 uM by spectroflurometric analysis relative to control; type: functional, Cerebral cortex neuron
HepG2 [11] = assay: Hepatotoxicity against human HepG2 cells assessed as LDH release at 1 to 300 uM; type: toxicity, cell-based; conditions: hepg2, 300 µM
SH-SY5Y = assay: Antioxidant activity in human SH-SY5Y cells assessed as decrease in H2O2-induced MDA level after 8 hrs by TBARS assay; type: functional, cell-based
[12] = Neuroprotective activity in Wistar rat embryo primary cortical neuron using DEVD-AMC as flurogenic substrate assessed as inhibition of SNP-induced cell necrosis by measuring caspase 3 activity at 25 to 50 uM by spectroflurometric analysis relative to control; type: functional, Cerebral cortex neuron
[13] = Neuroprotective activity in Wistar rat embryo primary cortical neuron assessed as reversal of SNP-induced ROS formation at 1 uM after 24 hrs by spectrofluorometric analysis relative to control; type: functional, Cerebral cortex neuron
Cerebral cortex neuron [14] = assay: Neuroprotective activity in Wistar rat embryo primary cortical neuron using DEVD-AMC as flurogenic substrate assessed as inhibition of oligomycin A-induced cell death by measuring caspase 3 activity at 25 to 50 uM by spectroflurometric analysis in presence of serum relative to control; type: functional, cell-based
[15] = Toxicity in Wistar rat embryo primary cortical neuron assessed as increase in ROS formation at >25 uM; type: cell-based; conditions: cerebral cortex neuron
[16] = Neuroprotective activity in Wistar rat embryo primary cortical neuron assessed as reversal of SNP-induced ROS formation at 25 uM after 24 hrs by spectrofluorometric analysis relative to control; type: functional, Cerebral cortex neuron
[17] = Neuroprotective activity in Wistar rat embryo primary cortical neuron assessed as reversal of SNP-induced ROS formation at 10 uM after 24 hrs by spectrofluorometric analysis relative to control; type: functional, Cerebral cortex neuron
[18] = Neuroprotective activity in Wistar rat embryo primary cortical neuron assessed as reduction of oligomycin A-induced cell death by measuring cell viability after 24 hrs by XTT assay relative to control; type: functional, cell-based; conditions: Cerebral cortex neuron
[19] = biological target: Acetylcholinesterase (Electrophorus electricus) (UniProt O42275); assay: Noncompetitive inhibition of electric eel AchE using acetylcholine as substrate at 0.01 to 10 uM preincubated for 15 mins followed by substrate addition measured for 5 mins by Lineweaver-Burk plot analysis
[20] = Neuroprotective activity in Wistar rat embryo primary cortical neuron assessed as reduction of oligomycin A-induced cell death by measuring cell viability at 100 uM after 24 hrs by XTT assay relative to control; type: functional, Cerebral cortex neuron
[21] = Neuroprotective activity in Wistar rat embryo primary cortical neuron assessed as reduction of SNP-induced cell death by measuring cell viability at 100 uM after 24 hrs by XTT assay relative to control; type: functional, Cerebral cortex neuron
Cerebral cortex neuron [22] = assay: Neuroprotective activity in Wistar rat embryo primary cortical neuron using DEVD-AMC as flurogenic substrate assessed as inhibition of SNP-induced cell necrosis by measuring caspase 3 activity at 25 to 50 uM by spectroflurometric analysis in presence of serum relative to control; type: functional, cell-based
Acetylcholinesterase [23] = biological target: T1, Acetylcholinesterase; assay: Noncompetitive inhibition of electric eel AchE using acetylcholine as substrate preincubated for 15 mins followed by substrate addition measured for 5 mins by Dixon plot analysis
[24] = Neuroprotective activity in Wistar rat embryo primary cortical neuron assessed as reduction of SNP-induced cell death by measuring cell viability after 24 hrs by XTT assay relative to control; type: functional, cell-based; conditions: Cerebral cortex neuron
Glycine max = assay: Inhibition of soybean lipoxygenase assessed as conversion of sodium linoleate to 13-hydroperoxylinoleic acid at 100 uM by UV absorbance assay

T1 sequence (O42275 whole entry): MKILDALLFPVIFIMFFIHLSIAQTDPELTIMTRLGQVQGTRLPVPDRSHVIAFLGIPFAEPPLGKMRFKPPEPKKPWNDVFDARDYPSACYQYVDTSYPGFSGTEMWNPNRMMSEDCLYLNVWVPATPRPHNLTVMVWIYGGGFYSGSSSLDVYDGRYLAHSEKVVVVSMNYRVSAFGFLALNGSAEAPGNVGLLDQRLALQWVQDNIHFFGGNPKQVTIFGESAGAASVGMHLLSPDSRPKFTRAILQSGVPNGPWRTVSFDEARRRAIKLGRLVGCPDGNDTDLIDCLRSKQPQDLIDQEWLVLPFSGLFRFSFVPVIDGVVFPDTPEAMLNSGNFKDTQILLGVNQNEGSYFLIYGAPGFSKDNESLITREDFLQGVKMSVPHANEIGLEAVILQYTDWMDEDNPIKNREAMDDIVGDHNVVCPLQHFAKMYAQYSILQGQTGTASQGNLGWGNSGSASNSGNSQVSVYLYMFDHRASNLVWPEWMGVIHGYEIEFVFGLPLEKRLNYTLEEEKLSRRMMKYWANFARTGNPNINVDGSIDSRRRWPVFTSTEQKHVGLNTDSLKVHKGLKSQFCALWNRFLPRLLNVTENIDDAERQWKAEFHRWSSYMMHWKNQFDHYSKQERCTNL
Acetylcholinesterase (Electrophorus electricus), sequence (O42275 24-633 limits assumed): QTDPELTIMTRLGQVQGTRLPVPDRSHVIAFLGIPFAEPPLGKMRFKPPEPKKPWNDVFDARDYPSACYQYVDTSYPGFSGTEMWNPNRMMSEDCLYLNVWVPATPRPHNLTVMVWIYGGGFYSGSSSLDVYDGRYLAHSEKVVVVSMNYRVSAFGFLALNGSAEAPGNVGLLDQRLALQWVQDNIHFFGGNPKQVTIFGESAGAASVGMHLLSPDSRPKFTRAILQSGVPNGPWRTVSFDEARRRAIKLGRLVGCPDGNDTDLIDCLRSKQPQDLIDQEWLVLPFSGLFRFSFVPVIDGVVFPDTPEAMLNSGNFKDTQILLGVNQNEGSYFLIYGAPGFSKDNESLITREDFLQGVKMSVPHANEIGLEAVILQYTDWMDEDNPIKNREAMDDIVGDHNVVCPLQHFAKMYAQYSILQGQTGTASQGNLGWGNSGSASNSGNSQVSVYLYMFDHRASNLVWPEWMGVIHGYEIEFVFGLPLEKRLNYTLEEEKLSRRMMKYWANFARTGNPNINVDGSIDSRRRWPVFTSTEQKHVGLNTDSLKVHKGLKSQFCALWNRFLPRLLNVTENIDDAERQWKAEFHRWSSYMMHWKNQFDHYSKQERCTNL

Compound	Activity (HepG2 [2])	viability at 24 h, 300 µM (in vitro [3]) [%]	viability at 24 h, 100 µM (in vitro [4]) [%]	viability at 24 h, 1 µM (in vitro [5]) [%]	viability at 24 h, 10 µM (in vitro [6]) [%]	viability at 24 h, 3 µM (in vitro [7]) [%]	viability at 24 h, 30 µM (in vitro [8]) [%]	IC50 (Acetylcholinesterase [9]) [nM]	also measured
Cc1c(C)c2c(c(C)c1O)CCC(C)(C(=O)O)O2 (stereo unspecified)									inhibition [1]: 63%
Nc1c2c(nc3c1C(c1ccc(F)cc1)c1ccc(O)cc1O3)CCCC2 (racemic)	Dose-dependent effect	50.1	55.5	91	62.8	75.1	55.7	103	
Cc1ccc(C2c3ccc(O)cc3Oc3nc4c(c(N)c32)CCCC4)cc1 (racemic)	Dose-dependent effect	47.9	71.7	96.9	85.6	89.5	74.3	65	
Nc1c2c(nc3c1C(c1ccccc1)c1ccc(O)cc1O3)CCCC2 (racemic)	Dose-dependent effect	49.6	55.8	99.5	66.2	67.4	62.4	550	
COc1cc(C2c3ccc(O)cc3Oc3nc4c(c(N)c32)CCCC4)cc(OC)c1OC (racemic)	Dose-dependent effect	103	98.3	102	101	98.7	100	41	fold change (FC) [10]: 1.83; inhibition [1]: 85%; Activity (HepG2 [11]): Non-toxic; Activity (SH-SY5Y): Dose-dependent effect; fold change (FC) [12]: 3.43; fold change (FC) [13]: 2.31; inhibition (Cerebral cortex neuron [14]): Active; Activity [15]: Toxic; fold change (FC) [16]: 1.81; fold change (FC) [17]: 1.93; EC50 [18]: 1110 nM; inhibition [19]: Active; Activity [20]: 81.08%; Activity [21]: 148.12%; inhibition (Cerebral cortex neuron [22]): Active; Ki (Acetylcholinesterase [23]): 47 nM; EC50 [24]: 3470 nM; inhibition (Glycine max): 18%
CC(Cc1ccc(O)c(O)c1)C(C)Cc1ccc(O)c(O)c1 (stereo unspecified)									inhibition (Glycine max): 84%
Nc1c2c(nc3c1C(c1ccc(Br)cc1)c1ccc(O)cc1O3)CCCC2 (racemic)	Dose-dependent effect	61.5	74.4	99	84.8	87.4	76.9	7	
CN(C)c1ccc(C2c3ccc(O)cc3Oc3nc4c(c(N)c32)CCCC4)cc1 (racemic)	Dose-dependent effect	80.3	85.5	99	86.1	88.5	85.5	290	
COc1ccc(C2c3ccc(O)cc3Oc3nc4c(c(N)c32)CCCC4)cc1 (racemic)	Dose-dependent effect	75.5	85.9	97.3	94.1	96.8	95	530	

Source: ChEMBL document CHEMBL3120120, “Toxicological and pharmacological evaluation, antioxidant, ADMET and molecular modeling of selected racemic chromenotacrines {11-amino-12-aryl-8,9,10,12-tetrahydro-7H-chromeno[2,3-b]quinolin-3-ols} for the potential prevention and treatment of Alzheimer's disease” (Eur J Med Chem, 2014)
